The test system of series [1] is Plasmodium berghei. In words: Antimalarial activity against Plasmodium berghei infected in mouse assessed as increase in survival at 100 mg/kg, po. The series is classed as functional.
A short description of series [2]: Selectivity index, ratio of IC50 for human AB943 to IC50 for chloroquine resistant Plasmodium falciparum FcB1/Colombia.
Series [3] concerns Plasmodium falciparum. In words: Antimalarial activity against chloroquine resistant Plasmodium falciparum FcB1/Colombia. The series is classed as functional, organism-based.
Series [4] concerns Plasmodium berghei. In words: Antimalarial activity against Plasmodium berghei ANKA infected in mouse at 30 mg/kg, po. The series is classed as functional.
Series [5] concerns Plasmodium falciparum. Kind of series: Antimalarial activity against ART-sensitive Plasmodium falciparum W2. The series is classed as functional, organism-based.
The subject of series [6] is Plasmodium falciparum. In words: Antimalarial activity against Plasmodium falciparum HB3. The series is classed as functional, organism-based.
The subject of series [7] is Plasmodium falciparum. Kind of series: Antimalarial activity against ART-resistant Plasmodium falciparum NF54 harboring […] mutant. The series is classed as functional, organism-based.
Series [8] has as its system Plasmodium falciparum. In words: Antimalarial activity against Plasmodium falciparum SGE2. The series is classed as functional, organism-based.
Series [9] relates to Plasmodium falciparum. Kind of series: Antimalarial activity against ART-sensitive Plasmodium falciparum NF54. The series is classed as functional, organism-based.
For series [10], the system named is Plasmodium falciparum. In words: Antimalarial activity against Plasmodium falciparum IPC4912. The series is classed as functional, organism-based.
For series [11], the system named is Plasmodium berghei. Kind of series: Antimalarial activity against Plasmodium berghei infected in mouse. The series is classed as functional. The settings on record: Plasmodium berghei.
The test system of series [12] is Plasmodium falciparum. Kind of series: Antimalarial activity against Plasmodium falciparum Dd2. The series is classed as functional, organism-based.
Series [13] has as its system Plasmodium falciparum. Kind of series: Antimalarial activity against Plasmodium falciparum 3D7. The series is classed as functional, organism-based.
The test system of series [14] is Plasmodium falciparum. Kind of series: Antimalarial activity against Plasmodium falciparum IPC5202. The series is classed as functional, organism-based.
Series [15] concerns Plasmodium falciparum. Kind of series: Antimalarial activity against Plasmodium falciparum IV-V gametocytes. The series is classed as functional, organism-based.
For series [16], the system named is Plasmodium falciparum. Kind of series: Antimalarial activity against ART-resistant Plasmodium falciparum Dd2 harboring R539T mutant. The series is classed as functional, organism-based.
Series [17] deals with Plasmodium falciparum. In words: Antimalarial activity against Plasmodium falciparum D6. The series is classed as functional, organism-based.
Series [18] deals with Plasmodium falciparum. Kind of series: Antimalarial activity against Plasmodium falciparum W2. The series is classed as functional, organism-based.
A short description of series [19]: Cytotoxicity against HEK293 cells. The settings on record: human. The series is classed as toxicity, cell-based.
The subject of series [20] is Plasmodium falciparum. In words: Potency index, ratio of chloroquine IC50 to test compound IC50 for Plasmodium falciparum INDO. The series is classed as functional.
Series [21] has as its system Plasmodium falciparum. Kind of series: Antimalarial activity against Plasmodium falciparum INDO. The series is classed as functional, organism-based.
For series [22], the system named is Plasmodium berghei. Kind of series: Antimalarial activity against Plasmodium berghei ANKA infected in po dosed mouse. The series is classed as functional. The settings on record: Plasmodium berghei, ANKA.
Series [23] can be described thus: Selectivity index, ratio of IC50 for HEK293 cells to IC50 for Plasmodium falciparum NF54. The series is classed as toxicity. The settings on record: human, read-out: Ratio IC50.
In series [24] the test system is Plasmodium falciparum. Kind of series: Antimalarial activity against Plasmodium falciparum K1. The series is classed as functional, organism-based.
Series [25] concerns Plasmodium falciparum. In words: Antimalarial activity against Plasmodium falciparum NF54. The series is classed as functional, organism-based.
For series [26], the system named is Plasmodium berghei. In words: Antimalarial activity against Plasmodium berghei infected in mouse assessed increase in survival time. The series is classed as functional.
The subject of series [27] is Plasmodium berghei. Kind of series: Antimalarial activity against Plasmodium berghei infected in mouse assessed reduction in parasitemia measured after 4 days. The series is classed as functional. On the set-up: scale not given: the % may be the effect or the level left. The settings on record: time 4 day.
Series [28] relates to Plasmodium vinckei. In words: Antimalarial activity against Plasmodium vinckei infected in mouse assessed as reduction in parasitaemia at 25 mg/kg, po or 7.5 mg/kg, ip measured on day 5. The series is classed as functional. On the set-up: scale not given: the % may be the effect or the level left.
Series [29] deals with Plasmodium vinckei. In words: Antimalarial activity against Plasmodium vinckei infected in mouse assessed as reduction in parasitaemia at 50 mg/kg, po or […], ip measured on day 5. The series is classed as functional. On the set-up: scale not given: the % may be the effect or the level left.

13 molecules from ChEMBL document CHEMBL5244272 (Eur J Med Chem, 2021) can be followed below.

Molecules are shown by their SMILES. pIC50: −log10 of the molar value.

Take `C[C@H]1[C@@H](OCC(CO[C@H]2O[C@@H]3O[C@]4(C)CC[C@H]5[C@H](C)CC[C@@H]([C@H]2C)[C@@]35OO4)=NOC(=O)CCC(=O)O)O[C@@H]2O[C@]3(C)CC[C@H]4[C@H](C)CC[C@@H]1[C@@]24OO3`: in [1], the Activity worked out at 100%.

For `CCOP(=O)(CCCN(O)C(=O)CCC(=O)N(CCCCNC(=O)CC[C@@H]1O[C@@H]2O[C@@]3(C)CC[C@@H]4[C@@H](C)CC[C@@H]([C@@H]1C)[C@]24OO3)CCCNC(=O)CCO[C@H]1O[C@@H]2O[C@]3(C)CC[C@H]4[C@H](C)CC[C@@H]([C@H]1C)[C@@]24OO3)OCC`, the Ratio IC50 in [2] was found to be 94. The molecule also gave a pIC50 in [3] of 9.44.

For the molecule `O=C(CC1CCC2(CC1)OOC1(OO2)C2CC3CC(C2)CC1C3)NC1CC1` (centres undefined), the Activity in series [4] is 100%.

On to `C[C@H]1[C@@H](O)O[C@@H]2O[C@@]3(C)CC[C@H]4[C@H](C)CC[C@@H]1[C@@]24OO3` [ARTENIMOL], for which the pIC50 in series [5] is 9.00; in series [6], 8.30; in [7], 8.96; in [8] it was 8.05; in [9], 8.82; in series [10] it was 8.43. The pIC50 is 8.38 in [12]; 8.33 in [13]; 8.21 in [14]; 6.36 in [15]; 8.85 in series [16]. Also, the ED50 in series [11] stood at 1.15 mg/kg.

As for `C[C@H]1[C@@H](OCC(CO[C@H]2O[C@@H]3O[C@]4(C)CC[C@H]5[C@H](C)CC[C@@H]([C@H]2C)[C@@]35OO4)=NO)O[C@@H]2O[C@]3(C)CC[C@H]4[C@H](C)CC[C@@H]1[C@@]24OO3`, the Activity in series [1] is reported as 100%. Moreover, the pIC50 in series [17] is 7.86; in series [18], 8.00.

On to `C=C(c1ccc(-c2cccc3ccccc23)cc1)C1COC2(CCCC2)OO1` (centres undefined), for which, in series [19], half-maximal cytotoxicity (CC50) was put at 3300 nM. Moreover, the “Ratio IC50” value in series [20] was >9. Besides, the pIC50 in series [21] is 7.23.

For `CCOP(=O)(CCCN(O)C(=O)CCC(=O)N(CCCCNC(=O)CCO[C@H]1O[C@@H]2O[C@]3(C)CC[C@H]4[C@H](C)CC[C@@H]([C@H]1C)[C@@]24OO3)CCCCNC(=O)CC[C@@H]1O[C@@H]2O[C@@]3(C)CC[C@@H]4[C@@H](C)CC[C@@H]([C@@H]1C)[C@]24OO3)OCC`, the Ratio IC50 in series [2] came out at 34. The pIC50 in series [3] is 9.19.

Regarding `O=C(CC1CCC2(CC1)OOC1(OO2)C2CC3CC(C2)CC1C3)N1CCOCC1` (centres undefined), the ED90 in series [22] came out at 3.88 mg/kg. Moreover, in [4], the Activity stood at 100%.

In turn, `CCCCNC(=O)CCC(C)[C@H]1CCC2C3C(C[C@H](OC(C)=O)[C@@]21C)[C@@]1(C)CCC2(C[C@H]1C[C@H]3OC(C)=O)OOCOO2` (some centres undefined) gave a pIC50 in series [15] of 5.94.

As for `CC(C)CCC[C@H](C)C1CC[C@H]2[C@@H]3CC=C4C[C@@H](OC(=O)CCN5CCN([C@H]6O[C@@H]7O[C@]8(C)CC[C@H]9[C@H](C)CC[C@@H]([C@H]6C)[C@@]79OO8)CC5)CC[C@]4(C)[C@H]3CC[C@]12C` (some centres undefined), the selectivity ratio in series [23] was 3900. Besides, the pIC50 in series [24] was 7.54; in series [25], 7.51; in series [18], 7.62.

In series [26], `Oc1ccc(C2CCC3(CC2)OOC2(OO3)C3CC4CC(C3)CC2C4)cc1CN1CCCC1` (centres undefined) had a Time of 25 days. Besides, the Activity in series [27] is >99.7%. The pIC50 in [24] and in [25] was 8.32 throughout.

Regarding `C[C@H]1[C@@H](OCCN(CCCNc2ccnc3cc(Cl)ccc23)CCO[C@H]2O[C@@H]3O[C@]4(C)CC[C@H]5[C@H](C)CC[C@@H]([C@H]2C)[C@@]35OO4)O[C@@H]2O[C@]3(C)CC[C@H]4[C@H](C)CC[C@@H]1[C@@]24OO3`, the Activity in series [28] and in series [29] was <1% throughout.

In the case of `C[C@H]1[C@@H](OCCN2CC[N+](CCNc3ccnc4cc(Cl)ccc34)(CCO[C@H]3O[C@@H]4O[C@]5(C)CC[C@H]6[C@H](C)CC[C@@H]([C@H]3C)[C@@]46OO5)CC2)O[C@@H]2O[C@]3(C)CC[C@H]4[C@H](C)CC[C@@H]1[C@@]24OO3`, the Activity in series [28] and in series [29] was <1% each time.

The term pIC50 denotes −log10 of the IC50, conventionally taken in molar units. A word on the ED50: it is the dose that gives a 50% effect, or the effect in half of the subjects. As a reminder, the CC50 is the concentration that lowers cell viability or growth by half.
